Source: patent US12077503B2, “Substituted cyclic amides and their use as herbicides” (FMC CORPORATION, priority 2015, dated 2024)

Key:
Experiment in all cases: Test C preemergence
Type in all cases: in vivo
soybean (Glycine max) = conditions: for Plant response rating, Soybean: scale 0 to 100, 0 no effect, 100 complete control
In short: (§1)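 Assessment: visual, 13–15 d after treatment, 0 (no effect) to 100 (complete control) relative to controls. Treatment: preemergence to seeds in loam-sand soil, or postemergence to 1- to 4-leaf plants in peat-based medium. Formulation: non-phytotoxic solvent mixture with surfactant.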

[1] = test system: waterhemp (common waterhemp, Amaranthus rudis); conditions: for Plant response rating, Waterhemp: scale 0 to 100, 0 no effect, 100 complete control
In short: as §1

[2] = test system: velvetleaf (Abutilon theophrasti); conditions: for Plant response rating, Velvetleaf: scale 0 to 100, 0 no effect, 100 complete control
In short: as §1

[3] = test system: morningglory (Ipomoea coccinea); conditions: for Plant response rating, Morningglory: scale 0 to 100, 0 no effect, 100 complete control
In short: as §1

[4] = test system: foxtail, giant (giant foxtail, Setaria faberii); conditions: for Plant response rating, Foxtail, Giant: scale 0 to 100, 0 no effect, 100 complete control
In short: as §1

[5] = test system: blackgrass (Alopecurus myosuroides); conditions: for Plant response rating, Blackgrass: scale 0 to 100, 0 no effect, 100 complete control
In short: as §1

[6] = test system: ryegrass, Italian (Italian ryegrass, Lolium multiflorum); conditions: for Plant response rating, Ryegrass, Italian: scale 0 to 100, 0 no effect, 100 complete control
In short: as §1

[7] = test system: barnyardgrass (Echinochloa crus-galli); conditions: for Plant response rating, Barnyardgrass: scale 0 to 100, 0 no effect, 100 complete control
In short: as §1

[8] = test system: nutsedge, yellow (yellow nutsedge, Cyperus esculentus); conditions: for Plant response rating, Nutsedge, Yellow: scale 0 to 100, 0 no effect, 100 complete control
In short: as §1

[9] = test system: lambsquarters (Chenopodium album); conditions: for Plant response rating, Lambsquarters: scale 0 to 100, 0 no effect, 100 complete control
In short: as §1

[10] = test system: oilseed rape (Brassica napus); conditions: for Plant response rating, Oilseed Rape: scale 0 to 100, 0 no effect, 100 complete control
In short: as §1

corn (Zea mays) = conditions: for Plant response rating, Corn: scale 0 to 100, 0 no effect, 100 complete control
In short: as §1

[11] = test system: Galium (catchweed bedstraw, Galium aparine); conditions: for Plant response rating, Galium: scale 0 to 100, 0 no effect, 100 complete control
In short: as §1

[12] = test system: crabgrass, large (large crabgrass, Digitaria sanguinalis); conditions: for Plant response rating, Crabgrass, Large: scale 0 to 100, 0 no effect, 100 complete control
In short: as §1

[13] = test system: ragweed (common ragweed, Ambrosia elatior); conditions: for Plant response rating, Ragweed: scale 0 to 100, 0 no effect, 100 complete control
In short: as §1

[14] = test system: wheat (winter wheat, Triticum aestivum); conditions: for Plant response rating, Wheat: scale 0 to 100, 0 no effect, 100 complete control
In short: as §1

[15] = test system: johnsongrass (Sorghum halepense); conditions: for Plant response rating, Johnsongrass: scale 0 to 100, 0 no effect, 100 complete control
In short: as §1

[16] = 31 g ai/ha, 0 is no effect, 100 is complete control

CN1CC(c2cccc(C(F)(F)F)c2)C(C(=O)Nc2ccccc2S(C)(=O)=O)C1=O (centres unmarked) [Compound 637]
Plant response rating (scale of 0 to 100), Soybean (soybean (Glycine max); [16]): 0
Plant response rating, Soybean (soybean (Glycine max); 62 g ai/ha): 0
Plant response rating, Soybean (soybean (Glycine max); 125 g ai/ha): 0
Plant response rating, Soybean (soybean (Glycine max); 250 g ai/ha): 5
Plant response rating (scale of 0 to 100), Waterhemp [1, 16]: 75
Plant response rating, Waterhemp ([1]; 62 g ai/ha): 80
Plant response rating, Waterhemp ([1]; 125 g ai/ha): 85
Plant response rating, Waterhemp ([1]; 250 g ai/ha): 90
Plant response rating (scale of 0 to 100), Velvetleaf [2, 16]: 0
Plant response rating, Velvetleaf ([2]; 62 g ai/ha): 10
Plant response rating, Velvetleaf ([2]; 125 g ai/ha): 45
Plant response rating, Velvetleaf ([2]; 250 g ai/ha): 65
Plant response rating (scale of 0 to 100), Morningglory [3, 16]: 10
Plant response rating, Morningglory ([3]; 62 g ai/ha): 35
Plant response rating, Morningglory ([3]; 125 g ai/ha): 40
Plant response rating, Morningglory ([3]; 250 g ai/ha): 45
Plant response rating (scale of 0 to 100), Foxtail, Giant [4, 16]: 90
Plant response rating, Foxtail, Giant ([4]; 62 g ai/ha): 90
Plant response rating, Foxtail, Giant ([4]; 125 g ai/ha): 95
Plant response rating, Foxtail, Giant ([4]; 250 g ai/ha): 95
Plant response rating (scale of 0 to 100), Blackgrass [5, 16]: 70
Plant response rating, Blackgrass ([5]; 62 g ai/ha): 90
Plant response rating, Blackgrass ([5]; 125 g ai/ha): 90
Plant response rating, Blackgrass ([5]; 250 g ai/ha): 90
Plant response rating (scale of 0 to 100), Ryegrass, Italian [6, 16]: 55
Plant response rating, Ryegrass, Italian ([6]; 62 g ai/ha): 30
Plant response rating, Ryegrass, Italian ([6]; 125 g ai/ha): 30
Plant response rating, Ryegrass, Italian ([6]; 250 g ai/ha): 35
Plant response rating (scale of 0 to 100), Barnyardgrass [7, 16]: 90
Plant response rating, Barnyardgrass ([7]; 62 g ai/ha): 90
Plant response rating, Barnyardgrass ([7]; 125 g ai/ha): 95
Plant response rating, Barnyardgrass ([7]; 250 g ai/ha): 95
Plant response rating (scale of 0 to 100), Nutsedge, Yellow [8, 16]: 0
Plant response rating, Nutsedge, Yellow ([8]; 62 g ai/ha): 85
Plant response rating, Nutsedge, Yellow ([8]; 125 g ai/ha): 0
Plant response rating, Nutsedge, Yellow ([8]; 250 g ai/ha): 65
Plant response rating (scale of 0 to 100), Lambsquarters [9, 16]: 25
Plant response rating, Lambsquarters ([9]; 62 g ai/ha): 55
Plant response rating, Lambsquarters ([9]; 125 g ai/ha): 55
Plant response rating, Lambsquarters ([9]; 250 g ai/ha): 70
Plant response rating (scale of 0 to 100), Oilseed Rape [10, 16]: 10
Plant response rating, Oilseed Rape ([10]; 62 g ai/ha): 80
Plant response rating, Oilseed Rape ([10]; 125 g ai/ha): 85
Plant response rating, Oilseed Rape ([10]; 250 g ai/ha): 85
Plant response rating (scale of 0 to 100), Corn (corn (Zea mays); [16]): 35
Plant response rating, Corn (corn (Zea mays); 62 g ai/ha): 55
Plant response rating, Corn (corn (Zea mays); 125 g ai/ha): 75
Plant response rating, Corn (corn (Zea mays); 250 g ai/ha): 85
Plant response rating (scale of 0 to 100), Galium [11, 16]: 0
Plant response rating, Galium ([11]; 62 g ai/ha): 80
Plant response rating, Galium ([11]; 125 g ai/ha): 80
Plant response rating, Galium ([11]; 250 g ai/ha): 85
Plant response rating (scale of 0 to 100), Crabgrass, Large [12, 16]: 95
Plant response rating, Crabgrass, Large ([12]; 62 g ai/ha): 100
Plant response rating, Crabgrass, Large ([12]; 125 g ai/ha): 100
Plant response rating, Crabgrass, Large ([12]; 250 g ai/ha): 100
Plant response rating (scale of 0 to 100), Ragweed [13, 16]: 55
Plant response rating, Ragweed ([13]; 62 g ai/ha): 60
Plant response rating, Ragweed ([13]; 125 g ai/ha): 75
Plant response rating, Ragweed ([13]; 250 g ai/ha): 75
Plant response rating (scale of 0 to 100), Wheat [14, 16]: 60
Plant response rating, Wheat ([14]; 62 g ai/ha): 50
Plant response rating, Wheat ([14]; 125 g ai/ha): 90
Plant response rating, Wheat ([14]; 250 g ai/ha): 90
Plant response rating (scale of 0 to 100), Johnsongrass [15, 16]: 45
Plant response rating, Johnsongrass ([15]; 62 g ai/ha): 70
Plant response rating, Johnsongrass ([15]; 125 g ai/ha): 75
Plant response rating, Johnsongrass ([15]; 250 g ai/ha): 85
